# Earlier results as cited in patent US12097177B2, “Therapeutic method for cat with chronic kidney disease” (Toray Industries, Inc., priority 2021, dated 2024).
# Structures can show the parent of a compound that is named as a salt. Where two headings read alike, the source gives them in different places.
# Assays:
# [1] = rats; cited from earlier work
# [2] = humans; cited from earlier work
# feline CKD [3] = details: in vivo; cited from earlier work
# feline CKD [4] = details: in vivo; cited from earlier work; remark: listed apart in the source
# feline CKD [5] = details: in vivo; cited from earlier work; remark: listed apart in the source
smiles,measurement,setting,value
"CC#CC[C@H](C)[C@H](O)/C=C/[C@@H]1[C@H]2c3cccc(CCCC(=O)[O-])c3O[C@H]2C[C@H]1O.[Na+] (single isomer, unassigned) [BPS-314d]",AUC of plasma BPS-314d when BPS is administered (fraction),[1],¼
same,Cmax of plasma BPS-314d when BPS is administered (fraction),[1],¼
same,AUC of plasma BPS-314d when BPS is administered (fraction),[2],¼
same,Cmax of plasma BPS-314d when BPS is administered (fraction),[2],¼
"CCOC(=O)[C@H](CCc1ccccc1)N[C@H]1CCc2ccccc2N(CC(=O)O)C1=O [Benazepril hydrochloride, benazepril hydrochloride]",progression of feline CKD stage,feline CKD [3],has not been found to inhibit progression of feline CKD stage
same,proteinuria,feline CKD [3],lower the severity of proteinuria
same,serum creatinine,feline CKD [3],inhibit elevation in serum creatinine
CN1N=C2CCN(C(=O)[C@@H](COCc3ccccc3)NC(=O)C(C)(C)N)C[C@@]2(Cc2ccccc2)C1=O [capromorelin],body weight loss,feline CKD [4],inhibit body weight loss
same,overall survival rate or observed survival rate,feline CKD [4],no improvement in the overall survival rate or the observed survival rate of feline CKD has been demonstrated
CCCc1nc2c(C)cc(-c3nc4ccccc4n3C)cc2n1Cc1ccc(-c2ccccc2C(=O)O)cc1 [telmisartan],proteinuria,feline CKD [5],improve proteinuria of feline CKD
